Results published in patent publication US20250143297A1, “Arthropod Control Compositions” (FIRMENICH SA, priority 2022, published 2025).

Experiments:
Aedes aegypti [1] = assay: Warm Body assay, repellence of mosquito landing on treated warm body; format: in vivo; details: for reduction of the number of mosquito landing: since the dose of 0.0016%
Aedes aegypti [2] = assay: Arm-in-cage test on human volunteers; format: in vivo; details: arm treated with 20%, three human volunteers
Experimental: The controlling effect, repellence & spatial repellence, according to the present invention is also determined according to an arm in the box method adapted from the WHO Guidelines for efficacy repellents testing of mosquito for human skin (WHO/CDS/NTD/WHOPES/2009.4). The readiness of 100 hungry female mosquitoes A. aegypti to a test substance is assessed by comparing the results of an untreated arm to a treated in when inserted into the cage (40×40×40 cm) for 30 seconds (negative control) three times. Further information is provided in the accompanying examples.
Arm-In-Cage Test is the Large-Scale Test Used to Assess on Human Volunteer the Repellent Efficacy on Mosquitoes.
The Arm in the box method was adapted from the WHO Guidelines for efficacy testing of mosquito repellents for human skin (WHO/CDS/NTD/WHOPES/2009.4). The readiness of 100 hungry female mosquitoes A. aegypti to probe is assessed by inserting an untreated arm into the cage (40×40×40 cm) for 30 seconds (negative control) three times (once at the beginning, once at the fourth hour and once at the eighth hour), to determine probing activity. Then, the product is applied onto the skin of the forearm of a human volunteer (1 mL per 600 cm^2) and after 5 minutes, this arm is inserted into the cage and exposed for 3 minutes. The assay take place in temperature (27±2° C.) and humidity (80±10% RH) regulated room on three different volunteers.

Anopheles gambiae = assay: Warm Body assay, repellence of mosquito landing on treated warm body; format: in vivo
Experimental: Anopheles gambiae is also a model organism as it is anthropophilic and transmits malaria.
The controlling effect according to the present invention was assessed using an adapted Warm Body assay as defined in Kröber T, Kessler S, Frei J, Bourquin M, Guerin PM. 2010. J Am Mosq Control Assoc. 26:381-386. In this in-vitro assay the number of mosquito landing on a warm body, simulating an attractive host treated with the tested stimuli, was measured in order to assess the repellence effect.
On the sandblasted glass Petri dish covering the warm body (28.3 cm^2), 100 μL of the compounds diluted at different concentrations in ethanol was applied. The number of mosquito landing on the warm body was counted for each stimulus and pure ethanol (solvent) as control.

Ixodes ricinus = assay: Warm Plate Assay, tick repellence

| SMILES | Percentage of repellence of mosquitoes Aedes aegypti landing on the warm body (Aedes aegypti [1]; 0.0032 mg/mL) [%] | Percentage of repellence of mosquitoes Aedes aegypti landing on the warm body (Aedes aegypti [1]; 0.016 mg/mL) [%] | Percentage of repellence of mosquitoes Aedes aegypti landing on the warm body (Aedes aegypti [1]; 0.08 mg/mL) [%] | Percentage of repellence of mosquitoes Aedes aegypti landing on the warm body (Aedes aegypti [1]; 0.4 mg/mL) [%] | Percentage of repellence of mosquitoes Aedes aegypti landing on the warm body (Aedes aegypti [1]; 2 mg/mL) [%] | Percentage of repellence of mosquitoes Aedes aegypti landing on the warm body (Aedes aegypti [1]; 10 mg/mL) [%] | Percentage of repellence of mosquitoes Anopheles gambiae landing on the warm body (Anopheles gambiae; 4.47 mg/mL) [%] | Percentage of repellence of mosquitoes Anopheles gambiae landing on the warm body (Anopheles gambiae; 10 mg/mL) [%] | other results |
| --- | --- | --- | --- | --- | --- | --- | --- | --- | --- |
| COc1ccc(CC(C)C=O)cc1 (stereo not shown) [compound 251, 3-(4-methoxyphenyl)-2-methylpropanal] | 0 | 0 | 40 | 79 | 96 | 89 | 100 | 96 | Percentage of repellence of mosquitoes Aedes aegypti landing on the warm body (Aedes aegypti [1]; 0.0071 mg/mL): 0%; Percentage of repellence of mosquitoes Aedes aegypti landing on the warm body (Aedes aegypti [1]; 0.0357 mg/mL): 61%; Percentage of repellence of mosquitoes Aedes aegypti landing on the warm body (Aedes aegypti [1]; 0.053 mg/mL): 54%; Percentage of repellence of mosquitoes Aedes aegypti landing on the warm body (Aedes aegypti [1]; 0.119 mg/mL): 52%; Percentage of repellence of mosquitoes Aedes aegypti landing on the warm body (Aedes aegypti [1]; 0.178 mg/mL): 71%; Percentage of repellence of mosquitoes Aedes aegypti landing on the warm body (Aedes aegypti [1]; 0.267 mg/mL): 97%; Percentage of repellence of mosquitoes Aedes aegypti landing on the warm body (Aedes aegypti [1]; 0.598 mg/mL): 93%; Percentage of repellence of mosquitoes Aedes aegypti landing on the warm body (Aedes aegypti [1]; 0.89 mg/mL): 99%; Percentage of repellence of mosquitoes Aedes aegypti landing on the warm body (Aedes aegypti [1]; 4.47 mg/mL): 97%; percentage of repellence compared to untreated arm (mean ± SD) (Aedes aegypti [2]; 5 min post-application): 100% ±; percentage of repellence compared to untreated arm (mean ± SD) (Aedes aegypti [2]; 1 h post-application): 99.84% ±; percentage of repellence compared to untreated arm (mean ± SD) (Aedes aegypti [2]; 2 h post-application): 98.82% ±; percentage of repellence compared to untreated arm (mean ± SD) (Aedes aegypti [2]; 3 h post-application): 95.59% ±; percentage of repellence compared to untreated arm (mean ± SD) (Aedes aegypti [2]; 4 h post-application): 87.3% ±; percentage of repellence compared to untreated arm (mean ± SD) (Aedes aegypti [2]; 5 h post-application): 81.02% ±; percentage of repellence compared to untreated arm (mean ± SD) (Aedes aegypti [2]; 6 h post-application): 73.75% ±; percentage of repellence compared to untreated arm (mean ± SD) (Aedes aegypti [2]; 7 h post-application): 65.56% ±; percentage of repellence compared to untreated arm (mean ± SD) (Aedes aegypti [2]; 8 h post-application): 64.04% ± |
| CC(C)(C)c1ccc(CCC=O)cc1 [compound 294, 3-(4-tert-butylphenyl)propanal] | – | 57 | – | 54 | – | 96 | 96 | 96 | reduction of the number of mosquito landing (Aedes aegypti [1]): by half; Percentage of repellence of mosquitoes Anopheles gambiae landing on the warm body (Anopheles gambiae; 0.178 mg/mL): 42%; Percentage of repellence of mosquitoes Anopheles gambiae landing on the warm body (Anopheles gambiae; 0.267 mg/mL): 14%; Percentage of repellence of mosquitoes Anopheles gambiae landing on the warm body (Anopheles gambiae; 0.4 mg/mL): 55% |
| COC(C)(C)c1ccc(CCC=O)cc1 [compound 681, 3-[4-(2-methoxy-2-propanyl)phenyl]propanal] | 0 | 0 | 31 | 49 | 89 | 92 | – | – | Percentage of repellence of ticks Ixodes ricinus on the warm plate (Ixodes ricinus; 0.08 mg/mL): 0.0%; Percentage of repellence of ticks Ixodes ricinus on the warm plate (Ixodes ricinus; 0.4 mg/mL): 13.3%; Percentage of repellence of ticks Ixodes ricinus on the warm plate (Ixodes ricinus; 2 mg/mL): 92.3%; Percentage of repellence of ticks Ixodes ricinus on the warm plate (Ixodes ricinus; 10 mg/mL): 92.0%; repellence of ticks Ixodes ricinus (Ixodes ricinus; 0.2% of stimulus applied): above 90%; repellence of ticks Ixodes ricinus (Ixodes ricinus; 1% of stimulus applied): above 90% |
| Cc1cc(C(C)(C)C)ccc1CCC=O [compound 859, 3-[2-methyl-4-(2-methyl-2-propanyl)phenyl] propanal] | – | 21 | – | 65 | – | 98 | – | – | – |
| CC(C)(O)Cc1ccc(CCC=O)cc1 [compound 867, 3-[4-(2-hydroxy-2-methylpropyl)phenyl]propanal] | – | 13 | – | 27 | – | 81 | – | – | – |
| COC(C)(C)c1ccc(CCC=O)c(C)c1 [compound 875, 3-[4-(2-methoxy-2-propanyl)-2-methylphenyl]propanal] | 39 | 60 | 24 | 81 | 81 | 96 | 97 | 100 | reduction of the number of mosquito landing (Aedes aegypti [1]): by half; Percentage of repellence of mosquitoes Anopheles gambiae landing on the warm body (Anopheles gambiae; 0.178 mg/mL): 69%; Percentage of repellence of mosquitoes Anopheles gambiae landing on the warm body (Anopheles gambiae; 0.267 mg/mL): 66%; Percentage of repellence of mosquitoes Anopheles gambiae landing on the warm body (Anopheles gambiae; 0.4 mg/mL): 93%; mosquitoes repelled (Anopheles gambiae; lowest concentration tested, 0.0178%): > 60% |
| CC(C)c1cccc(C(C)CC=O)c1 (stereo not shown) [compound 1389, 3-(3-propan-2-ylphenyl)butanal] | 11 | 0 | 53 | 81 | 87 | 90 | 58 | 96 | Percentage of repellence of mosquitoes Aedes aegypti landing on the warm body (Aedes aegypti [1]; 0.0357 mg/mL): 8%; Percentage of repellence of mosquitoes Aedes aegypti landing on the warm body (Aedes aegypti [1]; 0.053 mg/mL): 74%; Percentage of repellence of mosquitoes Aedes aegypti landing on the warm body (Aedes aegypti [1]; 0.178 mg/mL): 30%; Percentage of repellence of mosquitoes Aedes aegypti landing on the warm body (Aedes aegypti [1]; 0.89 mg/mL): 88%; Percentage of repellence of mosquitoes Aedes aegypti landing on the warm body (Aedes aegypti [1]; 4.47 mg/mL): 84% |
